Reference: patent US20230099027A1 (priority 2020, published 2023)

Test system: H1N1 Neth09
Type: cell-based, influenza A virus

Q: PEG8 was tested. Which virucidal result did it give?
A: did not give virucidal results
